From patent publication US20230227547A1, “ANTIBODY-PAYLOAD CONJUGATES WITH ENHANCED DELIVERY DOMAIN AND USES THEREOF” (IPROGEN BIOTECH INC., priority 2019, published 2023)

Assays:
T47D cells [1] = test: Anti-HER2 mAb delivery efficiency using LL37-derived peptide constructs; format: cell-based, human; settings: for Delivery efficiency: peptide conjugated to anti-HER2 mAb light chain, 100 nM Ab, Z-GFP (PEP#6, 35-43) or Goat anti-human IgG-AlexaFluor 488 (PEP#6, 47-94) fluorescence microscopy
Method: LL37 and LL37-derived peptides were produced synthetically with two additional N-terminal glycine residues (e.g. as shown in SEQ ID NO:2 compared to SEQ ID NO: 1) to enable the sortase reaction. The LL37-derived peptides (PEP#35 to #43, SEQ ID NOs: 13-21) were all dissolved at 10 mg/ml in phosphate buffer saline (PBS) at room temperature, sterile-filtered, and stored at -20° C. freezer. PEP#48 (SEQ ID: 74), PEP#49 (SEQ ID No: 75), and PEP#60 (SEQ ID NO: 105) were dissolved in 20% (v/v) acetonitrile in PBS. PEP#47 (SEQ ID NO: 96), PEP#86 (SEQ ID NO: 78), PEP#98 (SEQ ID NO: 79), PEP#99 (SEQ ID NO: 80), PEP#102 (SEQ ID NO: 82), and PEP#104 (SEQ ID NO: 84) were dissolved in DMSO. PEP#50 (SEQ ID No: 76), PEP#51 (SEQ ID No: 97), PEP#55 (SEQ ID No: 77), PEP#58 (SEQ ID No: 103), PEP#59 (SEQ ID No: 104), PEP#61 (SEQ ID No: 106), PEP#62 (SEQ ID No: 107), PEP#63 (SEQ ID No: 108), PEP#64 (SEQ ID No: 109), PEP#66 (SEQ ID No: 110), and PEP#94 (SEQ ID No: 35) were all dissolved in PBS. […] The reaction was incubated inside a 37° C. incubator for 16 hours, and then EDTA (pH 7.5) was added to 10 mM in the reaction mixture to chelate calcium and stop the reaction.
Delivery assay: The following delivery assay method was used on the anti-HER2 mAbs conjugated to the PEP#6, #35, #36, #37, #38, #39, #40, #41, #42, and #43 described in Table 7. […] The plates were then removed from the incubator, and the culturing media was removed from the adherent cells. The adherent cells were washed gently with an equal volume of ice-cold PBS. Then, the PBS wash was replaced 250 µl of fresh PBS for fluorescence microscope imaging.
(§1) At the end of incubation, the adherent target cells were washed twice with ice-cold PBS, fixed with 2% (w/v) formaldehyde in PBS at room temperature for 15 minutes, and washed twice with PBS at room temperature. The fixed adherent target cells were then permeabilized with 0.05% (v/v) Tween-20 in PBS at room temperature for 15 minutes. The permeabilized cells were then incubated with 5% (v/v) FBS, 0.05% (v/v) Tween-20 in PBS at 37 degree Celsius incubator for 30 minutes. The secondary antibody, Goat anti-human IgG-AlexaFluor 488, was added to 5 ug/ml in 5% (v/v) FBS, 0.05% (v/v) Tween-20 in PBS, and incubated with the treated target cells at 37 degree Celsius incubator for 30 minutes. After incubation, the labelled cells were washed twice with PBS, and stored in storage buffer [5% (v/v) FBS in PBS] at 4 degree Celsius until fluorescence microscope imaging. The delivery of mAb and mAb-LL37-derived peptides were determined qualitatively by estimating the green fluorescence intensity emitted from the AlexFluor488-labelled secondary antibody bound to mAb or mAb-LL37-derived peptides.

RT4v6 = test: Delivery assay, Goat anti-human IgG-AlexaFluor 488 fluorescence microscopy, RT4v6; format: cell-based; set-up: key to Delivery efficiency of mAb (i.e., mAb): +++: Strong Alexa Fluor 488 (cyan/green) fluorescent intensity; ++: Medium level of Alexa Fluor 488 (cyan/green) fluorescent intensity; +: Weak, but noticeable Alexa Fluor 488 (cyan/green) fluorescent intensity; -: No signal; settings: Target cell RT4v6
Method: as §1, with “Delivery assay. […] The culturing media containing the unbound antibodies were removed, and the MDA-MB-468 cells were washed with PBS. The adherent cells were treated with trypsin at 37 degree C for 1-2 minutes, neutralized in FACS buffer (2% v/v FBS, 2 mM EDTA, 0.05% w/v sodium azide in PBS), and transferred to FACS tubes on ice. The delivery of antibodies to cells was quantitated by measuring the red fluorescence intensity (i.e., PE-Texas Red color channel in the FACS detector) emitted fromZ-RFP bound to antibody. […] At” for “At”, “mAb-LL37” for “mAb-LL37-derived peptides”, “mAb-LL37. […] However, Ramos [NT] […] The secondary anti-human IgG-AlexaFluor488 labelled target cells were washed and resuspended in PBS, and transferred to the clear polystyrene 48-well plates for fluorescence microscope imaging.” for “mAb-LL37-derived peptides.”

CD20-positive RL cells = test: Delivery assay, Z-RFP FACS, RL cells; format: cell-based, human; settings: 0.5 nM, 5 nM, 50 nM; 30 minutes
Method: For FIG. 30 Panel D, Ofatumumab-LL37 was made from Ofatumumab (SEQ ID NOs: 40 and 41) in a sortase-catalyzed reaction to GG-LL37 peptide (SEQ ID NO: 2), and purified on Protein A chromatography. For cell delivery assay, Ofatumumab/Ofatumumab-LL37 and equimolar equimolar number of Z-RFP were added to RL cells at described final concentration (i.e., 0.5 nM, 5 nM, and 50 nM) and incubated for 30 minutes. The liquid suspension culture was gently spun in a microcentrifuge at 2000 rpm for 4 minutes, and the clear supernatant was removed, and the cell pellet was washed in PBS and resuspended in FACS buffer (1XPBS, 2% FBS, 1 mM EDTA, 0.02% sodium azide) for analysis by FACS (Texas Red channel).

[2] = system: CD3-positive Jurkat cells; test: Delivery assay, Z-RFP FACS, Jurkat cells; format: cell-based, human; settings: 1 nM, 10 nM, 100 nM; 30 minutes
Method: For FIG. 30 Panel E, Foralumab-LL37 was made from Foralumab (SEQ ID NOs: 129 and 130) in a sortase-catalyzed reaction to GG-LL37 peptide (SEQ ID NO: 2), and purified on Protein A chromatography. For cell delivery assay, Foralumab/Foralumab-LL37 and equimolar number of Z-RFP were added to Jurkat cells at described final concentration (i.e, 1 nM, 10 nM, and 100 nM) and incubated for 30 minutes. The liquid suspension culture was gently spun in a microcentrifuge at 2000 rpm for 4 minutes, and the clear supernatant was removed, and the cell pellet was washed in PBS and resuspended in FACS buffer (1XPBS, 2% FBS, 1 mM EDTA, 0.02% sodium azide) for analysis by FACS (Texas Red channel).

T47D cells [3] = test: Cell viability assay with XTT, T47D; format: cell-based, human; settings: XTT (Taxol ADCs: 3 hours)
Method: The cell assay was done by treating/incubating the T47D cells with antibody drug conjugates for 3 hours in the 37 degree C tissue culture incubator. After treatment, cell viability was determined by XTT assay as described above.
After treatment, cell viability was determined by XTT assay as described above.

LnCap = test: Delivery assay, Goat anti-human IgG-AlexaFluor 488 fluorescence microscopy, LnCap; format: cell-based; set-up: key to Delivery efficiency of mAb (i.e., mAb): +++: Strong Alexa Fluor 488 (cyan/green) fluorescent intensity; ++: Medium level of Alexa Fluor 488 (cyan/green) fluorescent intensity; +: Weak, but noticeable Alexa Fluor 488 (cyan/green) fluorescent intensity; -: No signal; settings: Target cell LnCap; for Delivery efficiency of mAb (i.e., mAb): 100 nM, 3 hours; for Delivery enhancement: mAb-LL37 vs mAb
Method: Delivery assay. […] The culturing media containing the unbound antibodies were removed, and the MDA-MB-468 cells were washed with PBS. The adherent cells were treated with trypsin at 37 degree C for 1-2 minutes, neutralized in FACS buffer (2% v/v FBS, 2 mM EDTA, 0.05% w/v sodium azide in PBS), and transferred to FACS tubes on ice. The delivery of antibodies to cells was quantitated by measuring the red fluorescence intensity (i.e., PE-Texas Red color channel in the FACS detector) emitted fromZ-RFP bound to antibody. […] At the end of incubation, the adherent target cells were washed twice with ice-cold PBS, fixed with 2% (w/v) formaldehyde in PBS at room temperature for 15 minutes, and washed twice with PBS at room temperature. The fixed adherent target cells were then permeabilized with 0.05% (v/v) Tween-20 in PBS at room temperature for 15 minutes. The permeabilized cells were then incubated with 5% (v/v) FBS, 0.05% (v/v) Tween-20 in PBS at 37 degree Celsius incubator for 30 minutes. The secondary antibody, Goat anti-human IgG-AlexaFluor 488, was added to 5 ug/ml in 5% (v/v) FBS, 0.05% (v/v) Tween-20 in PBS, and incubated with the treated target cells at 37 degree Celsius incubator for 30 minutes. After incubation, the labelled cells were washed twice with PBS, and stored in storage buffer [5% (v/v) FBS in PBS] at 4 degree Celsius until fluorescence microscope imaging. The delivery of mAb and mAb-LL37 were determined qualitatively by estimating the green fluorescence intensity emitted from the AlexFluor488-labelled secondary antibody bound to mAb or mAb-LL37. […] However, Ramos [NT] No. ATCC CRL-1596, lot#70016960) was grown in suspension culture (i.e., in contrast to adherent cells), and the modification to the methods involves simply harvesting cells from the shaking culture flask for incubation with antibodies (or LL37-linked antibodies), and frequently pelleting down the target cells in the V-bottom 96-well polypropylene plate for downstream processes of PBS washing, fixing, permeabilizing, blocking, and the secondary antibody labelling. The secondary anti-human IgG-AlexaFluor488 labelled target cells were washed and resuspended in PBS, and transferred to the clear polystyrene 48-well plates for fluorescence microscope imaging.

Substance: FRKSKEKIGKFFKRIVQRIFDFLRNLVMMWLL [PEP#48]
- Delivery efficiency (T47D cells [1]): +++ (Same as LL37)

Substance: EKIGKEFKRIVQRIKDFLRN [PEP#63]
- Delivery efficiency (T47D cells [1]): +

Substance: LLGDFFRASKEKIGKEFAAIVQAIKDFLANLVPATES [PEP#50]
- delivery enhancement (in words) (T47D cells [1]; peptide conjugated to anti-HER2 mAb): decrease in, but not abrogation of, delivery enhancement
- Delivery efficiency (T47D cells [1]): +

Substance: Vofatamab [Anti-FGFR3, Vofatamab]
- Delivery efficiency of mAb (i.e., mAb) (RT4v6; 100 nM, 3 hours): +
- Delivery enhancement (RT4v6; mAb-LL37 vs mAb): YES

Substance: Ofatumumab-LL37
- targeted delivery (in words) (CD20-positive RL cells): more efficient than anti-CD20 mAb (i.e., Ofatumumab) at targeted delivery

Substance: Foralumab-LL37
- targeted delivery (in words) [2]: more efficient than anti-CD3e mAb (i.e., Foralumab) at targeted delivery

Substance: IVQRIKDFLRNLVPRTES [PEP#38]
- Delivery efficiency (T47D cells [1]): ++ (Solid enhancement in delivery, but at lower efficiency than LL37)
- killing of T47D / cell viability (in words) (T47D cells [3]): enhanced the anti-HER2 mAb-MMAE drug conjugate to kill T47D cells

Substance: Anti-PSMA, hj591: Anti-PSMA mAb, SEQ ID NOs: 66 and 68
- Delivery efficiency of mAb (i.e., mAb) (LnCap): ++
- Delivery enhancement (LnCap): YES
- Delivery enhancement (LnCap; listed as hj591): greatly enhances the delivery

Substance: EFKRIVQRIKDFLRNLVPRT [PEP#64]
- Delivery efficiency (T47D cells [1]): +

Substance: KSKEKIGKEFKRIVQ [PEP#42]
- Delivery efficiency (T47D cells [1]): +

Substance: Citatuzumab [Anti-EpCAM, Citatuzumab]
- Delivery efficiency of mAb (i.e., mAb) (LnCap): ++
- Delivery enhancement (LnCap): YES

Substance: Labetuzumab [Anti-CEACAM5, Labetuzumab]
- Delivery efficiency of mAb (i.e., mAb) (LnCap): +
- Delivery enhancement (LnCap): YES
- Delivery enhancement (LnCap; listed as labetuzumab): significantly increases the delivery
